Patent publication US20240390455A1, “METHODS AND COMPOSITIONS FOR TREATING CANCERS AND OTHER PROLIFERATIVE DISORDERS” (ARIZONA BOARD OF REGENTS ON BEHALF OF THE UNIVERSITY OF …, priority 2022, published 2024)
Blank lines part the entries; values can stand above or below the molecule they belong to.

How the values were obtained:
Akt = Akt phosphorylation in naive HPASMC treated with media from apoptotic cells (Western blot); type: cell-based, human; details: apoptotic conditioned media, 24 h, L-690,330 at 500 μM, FIG. 9C
Method: Western blot and immunoprecipitation: For an analysis of the total lung proteins, lung tissues were lysed. According to the manufacturer's protocol, the membrane proteins were isolated using Mem-PER Plus Membrane Protein Extraction Kit (ThermoFisher Scientific, Rockford, IL). Briefly, 20-40 mg of lung tissue was quickly washed in Cell WashSolution to remove any blood components, transferred to permeabilization buffer mixed with protease and phosphatase inhibitor cocktails, homogenized using Fisher Homogenizer 850 for 1 minute, and shaken in UltraCruz Shaker at 0° C. for 10 minutes. The homogenate was centrifuged at 16,000 g for 15 minutes to pellet permeabilized cells. The supernatant containing cytosolic proteins was carefully transferred to a separate tube. […] The reactive bands were visualized using a chemiluminescent protocol, recorded with the ChemiDoc MP Imaging System (Bio-RadLaboratories, Hercules, CA), and analyzed using Image Laboratory software. […]
Cell culture: Human pulmonary artery endothelial cells (HPAEC; cat. no. 3100, lot no. 3904) and human pulmonary artery smooth muscle cells (HPASMC; cat. no. 3110, lot no. 0294) were purchased from ScienCell (Carlsbad, CA), one donor for each cell type. […] The level of apoptosis was quantified using Apoptosis and Necrosis Quantification Kit (Biotum, Fremont, CA) according to the manufacturer's protocol. […]

RAGE/IMPA1 = target: T1, RAGE/IMPA1 (Rattus norvegicus, UniProt P97697); assay: RAGE/IMPA1 co-immunoprecipitation in lungs of SU/Hx rats after peptide injection; type: in vivo; details: 5 μg/kg i.p. daily for 1 wk, FIG. 11B
T1 construct: from tissue; host or cells: lung of Sprague-Dawley rats (SU5416/hypoxia PAH model)
T1 sequence (P97697 1-277): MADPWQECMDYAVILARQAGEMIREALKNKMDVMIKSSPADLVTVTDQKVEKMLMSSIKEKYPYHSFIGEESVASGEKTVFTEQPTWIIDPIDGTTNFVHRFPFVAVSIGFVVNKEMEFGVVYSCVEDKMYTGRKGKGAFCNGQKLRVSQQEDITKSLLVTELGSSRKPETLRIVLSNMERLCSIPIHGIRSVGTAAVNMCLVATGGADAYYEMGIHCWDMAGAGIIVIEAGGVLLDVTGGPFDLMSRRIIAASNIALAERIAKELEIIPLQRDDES
Method: (§1) Rat models of pulmonary hypertension: Thirty-two Sprague-Dawley female rats (200-250 g) were purchased from Charles River (Wilmington, MA). Animals were kept in a 12-h:12-h light-dark cycle and received standard rodent food and water ad libitum. All experimental procedures were approved by the University of Arizona's Institutional Animal Care and Use Committee. To induce PAH, rats received either the vehicle or a single dose of the VEGF receptor 2 antagonist SU5416, 50 mg/kg sc, as previously described. On the day of injection, the PAH rats were placed in a hypoxic chamber (BioSpherix, Redfield, NJ), and the oxygen was maintained at the level of 10±0.5%. The O2 and CO2 concentrations were continuously monitored (PROOX 110 BioSpherix oxygen controller and LB-2 CO2 analyzer; Sensormedics).
For immunoprecipitation (IP), RAGE antibodies conjugated to agarose beads were used according to the manufacturer's (Santa Cruz Biotechnology) protocol. Lung tissue lysate (300 μg of total protein) was rotated at room temperature with 20 μl of bead solution for 2 hours. Beads were collected by brief centrifugation (30 seconds at 1,000 g), washed four times with lysis buffer and PBS, resuspended with 30 μl of 2× Laemmli sample buffer, and boiled for 5 minutes at 95° C. The supernatant collected by centrifugation was used for Western Blot analysis as described.

SU/Hx rats = assay: SU/Hx rat model of pulmonary arterial hypertension: RV pressure and RV hypertrophy; type: in vivo; details: 5 μg/kg i.p. daily for 1 wk
Method: as §1
The animals were analyzed after 1 or 2 weeks of exposure to hypoxia or after 5 weeks (i.e., 3 weeks of hypoxia and 2 weeks of normoxia). The control rats were kept under normoxic conditions for the duration of the study (5 weeks). At the end of each study period, animals were anesthetized ([…], 100 mg/kg ip) and instrumented for measurement of right ventricle (RV) hemodynamics. Briefly, a PE-240 polyethylene tube was inserted into the trachea to facilitate breathing. […]

HeLa cells = assay: Proliferation of HeLa cells (human cancer cells); type: cell-based; details: FIG. 11G
[1] = tested on: PAEC isolated from Control subjects; assay: Growth of PAEC isolated from Control subjects (healthy cells); type: cell-based, human; details: 3.3 mg/ml, FIG. 11F
[2] = tested on: PAEC isolated from IPAH patients; assay: Proliferation of PAEC isolated from IPAH patients; type: cell-based, human; details: 3.3 mg/ml, FIG. 11E
[3] = target: T2, receptor for advanced glycation endproducts (RAGE), rat, endogenous in lung tissue (rat, UniProt Q63495 23-402); assay: RAGE co-IP from PAH rat lung, mass spectrometry, immunoblot time course and PLA
T2 construct: Endogenous rat protein, pulled down from lung lysate with RAGE antibody on agarose beads or detected in situ by PLA; No construct limits apply; also called full-size RAGE
From the text: FIGS. 4A, 4B, and 4C show a receptor for advanced glycation endproducts (RAGE) interacting with inositol monophosphatase 1 (IMPA1) in pulmonary arterial hypertension (PAH). Mass spectrometry analysis of proteins co-immunoprecipitated (co-IP) with RAGE from lungs identified IMPA1 as a novel RAGE interacting partner. The RAGE-IMPA1 complex was discovered in both samples from PAH animals (week 5) but not in control (peptide probability […]; 4 peptides with P>89%). […] There was no interaction between RAGE and IMPA1 in controls from week 1 RAGE/IMPA1 were efficiently co-IP (n=4 for all groups). Results are expressed as box and whisker plots (boxes: 25th to 75th percentile of the data; whiskers: minimum to maximum; the line represents the median value). *P<0.05 vs. control. Statistical analysis was performed by Newman-Keuls multiple-comparisons test. […] Images are representative of 6 pulmonary arteries/at n=4 rats/group. Gray images were taken using light microscopy (×20) to visualize the tissue structure. The square represents the area of magnification (×100). The white marker corresponds to 25 μm. […] The dotted line is traced following the external lamina of the vessel. The arrowheads point to the endothelial cells with no PLA signal; white arrows point to the cells in the pulmonary artery media and adventitia cells with a bright PLA signal. IB, immunoblot. […]

T2 sequence (Q63495 23-402 limits assumed): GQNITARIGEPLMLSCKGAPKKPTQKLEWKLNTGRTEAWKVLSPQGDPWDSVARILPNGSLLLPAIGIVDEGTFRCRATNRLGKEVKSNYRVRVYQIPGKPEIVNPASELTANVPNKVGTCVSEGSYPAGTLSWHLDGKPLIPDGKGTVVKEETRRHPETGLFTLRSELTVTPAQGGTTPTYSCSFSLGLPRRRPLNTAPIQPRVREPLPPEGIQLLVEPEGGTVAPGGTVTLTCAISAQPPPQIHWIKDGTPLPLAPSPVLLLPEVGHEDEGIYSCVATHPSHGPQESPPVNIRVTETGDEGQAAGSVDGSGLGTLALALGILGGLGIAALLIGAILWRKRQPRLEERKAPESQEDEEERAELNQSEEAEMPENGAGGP

Molecule: CC(Oc1ccc(O)cc1)(P(=O)(O)O)P(=O)(O)O [L-690,330]
Akt phosphorylation (Akt): significantly attenuated

RAGE/IMPA1 co-IP (RAGE/IMPA1): inhibits RAGE/IMPA1 co-IP
Molecule: ILWQRRQRRG [SEQ ID NO: 1]
RVSP (right ventricle systolic pressure) (SU/Hx rats; FIG. 11C): reduces RVSP | RV hypertrophy (SU/Hx rats; FIG. 11D): reduces

Molecule: anti-RAGE/IMPA1 peptide: peptide designed based on the sequence of cytosolic tails of RAGE predicted to interact with IMPA1; probably SEQ ID NO: 1 (ILWQRRQRRG)
proliferative phenotype of HeLa cells (HeLa cells): reverses the proliferative phenotype | growth of PAEC isolated from Control subjects [1]: does not affect the growth | proliferative phenotype of PAEC isolated from IPAH patients [2]: reverses the highly proliferative phenotype

binding result [3]: binds
B1: inositol monophosphatase 1 (IMPA1), rat, endogenous in lung tissue (enzyme, UniProt P97697 1-277, looked up)
chain: MADPWQECMDYAVILARQAGEMIREALKNKMDVMIKSSPADLVTVTDQKVEKMLMSSIKEKYPYHSFIGEESVASGEKTVFTEQPTWIIDPIDGTTNFVHRFPFVAVSIGFVVNKEMEFGVVYSCVEDKMYTGRKGKGAFCNGQKLRVSQQEDITKSLLVTELGSSRKPETLRIVLSNMERLCSIPIHGIRSVGTAAVNMCLVATGGADAYYEMGIHCWDMAGAGIIVIEAGGVLLDVTGGPFDLMSRRIIAASNIALAERIAKELEIIPLQRDDES
notes: Endogenous rat protein co-immunoprecipitated with RAGE
